Test system: IL-5 production in human blood
Experiment: In vitro inhibition of IL-5 production in human blood (phytohemagglutinin-stimulated whole blood, ELISA)
Format: cell-based
Details: test dose 1×10^−6 M, phytohemagglutinin 2 μg/ml, 48 hours
Protocol: EXAMPLE C.1: IN VITRO INHIBITION OF IL-5 PRODUCTION IN HUMAN BLOOD
Peripheral blood from healthy male donors was drawn into heparinized syringes (12.5 U heparin/ml). Blood samples were three-fold diluted in RMPI 1640 medium (Life Technologies, Belgium) supplemented with 2 mM L-glutamine, 100 U/ml penicillin and 100 μg/ml streptomycin, and 300 μl fractions were distributed in 24-well multidisc plates. Blood samples were preincubated (60 minutes at 37° C.) in a humidified 6% CO2-atmosphere with 100 μl of drug solvent (final concentration 0.02% dimethylsulfoxide in RPMI 1640) or with 100 μl of an appropriate dose of test compound before being stimulated by the addition of 100 μl of phytohemagglutinin HA17 (Murex, UK) at a final concentration of 2 μg/ml. After 48 hours, cell-free supernatant fluids were collected by centrifugation and stored at −70° C. until tested for the presence of IL-5.
IL-5 measurements were conducted as described in Van Wauwe et al. (1996, Inflamm Res, 45, 357-363) on page 358 using ELISA.
Table 6 lists the percentage inhibition of IL-5 production (column “% inh”) at a test dose of 1×10^−6 M, or in case the percentage inhibition is marked with an “*” 1×10^−5 M, for the compounds of the present invention.

Compound	% inh. (percentage inhibition of IL-5 production)
1-[[2-[1-[2,6-dichloro-4-(4,5-dihydro-3,5-dioxo-1,2,4-triazin-2(3H)-yl)-phenyl]-1-methylethyl]-4-phenyl-2-thiazolyl]acetyl-4-phenylmethyl)piperazine [Compound 35]	63%
1′-[[2-[1-[2,6-dichloro-4-(4,5-dihydro-3,5-dioxo-1,2,4-triazin-2(3H)-yl)phenyl]-1-methylethyl-4-phenyl-5-thiazolyl]acetyl]-(1,4′-dipiperidine) [Compound 24]	32%
2-[3,5-dichloro-4-(2-pyridinyl-methyl)phenyl]-1,2,4-triazine-3,5(2H,4H)-dione hydrochloride(:1); hydrate(1:1) [Compound 107]	14%
3-[2-[1-[2,6-dichloro-4-(4,5-dihydro-3,5-dioxo-1,2,4-triazin-2(3H)-yl)phenyl]-1-methylethyl-4-(2-chlorophenyl)-5-thiazolyl]-N-(2-methoxyethyl)-benzamide [Compound 63]	38%
CN(C)Cc1sc(C(C)(C)c2c(Cl)cc(-n3ncc(=O)[nH]c3=O)cc2Cl)nc1-c1ccccc1.Cl [Compound 2]	92%
CC(C)(c1nc(-c2ccccc2Cl)cs1)c1c(Cl)cc(-n2ncc(=O)[nH]c2=O)cc1Cl [Compound 4]	94%
CC(C)(c1nc(-c2cccs2)cs1)c1c(Cl)cc(-n2ncc(=O)[nH]c2=O)cc1Cl [Compound 5]	90%
CCOC(=O)c1sc(C(C)(C)c2c(Cl)cc(-n3ncc(=O)[nH]c3=O)cc2Cl)nc1-c1ccccc1 [Compound 6]	94%
CC(C)(c1nc(-c2ccncc2)cs1)c1c(Cl)cc(-n2ncc(=O)[nH]c2=O)cc1Cl [Compound 7]	88%
CC(C)(c1nc(-c2cccc(Cl)c2)cs1)c1c(Cl)cc(-n2ncc(=O)[nH]c2=O)cc1Cl [Compound 8]	85%
CCOC(=O)Cc1sc(C(C)(C)c2c(Cl)cc(-n3ncc(=O)[nH]c3=O)cc2Cl)nc1-c1ccccc1 [Compound 9]	88%
Cc1sc(C(C)(C)c2c(Cl)cc(-n3ncc(=O)[nH]c3=O)cc2Cl)nc1-c1ccccc1 [Compound 10]	85%
CC(C)(c1nc(-c2ccccc2F)cs1)c1c(Cl)cc(-n2ncc(=O)[nH]c2=O)cc1Cl [Compound 11]	88%
CC(C)(c1nc(-c2ccc(Br)cc2)cs1)c1c(Cl)cc(-n2ncc(=O)[nH]c2=O)cc1Cl [Compound 12]	70%
CC(C)(c1nc(-c2c(F)cccc2F)cs1)c1c(Cl)cc(-n2ncc(=O)[nH]c2=O)cc1Cl [Compound 13]	75%
CC(C)(c1nc(-c2ccccc2)c(N2CCOCC2)s1)c1c(Cl)cc(-n2ncc(=O)[nH]c2=O)cc1Cl [Compound 14]	78%
Cc1sc(C(C)(C)c2c(Cl)cc(-n3ncc(=O)[nH]c3=O)cc2Cl)nc1-c1ccccc1F [Compound 15]	81%

Compound	% inh. (percentage inhibition of IL-5 production)
CN1CCN(c2sc(C(C)(C)c3c(Cl)cc(-n4ncc(=O)[nH]c4=O)cc3Cl)nc2-c2ccccc2)CC1 [Compound 16]	57%
Cc1sc(C(C)(C)c2c(Cl)cc(-n3ncc(=O)[nH]c3=O)cc2Cl)nc1-c1cccc(F)c1 [Compound 17]	94%
CC(C)(c1nc(-c2ccc(F)cc2F)cs1)c1c(Cl)cc(-n2ncc(=O)[nH]c2=O)cc1Cl [Compound 18]	91%
CC(C)(c1nc(-c2ccccc2)c(CC(=O)O)s1)c1c(Cl)cc(-n2ncc(=O)[nH]c2=O)cc1Cl [Compound 19, 2-[1-[2,6-dichloro-4-(4,5-dihydro-3,5-dioxo-1,2,4-triazin-2(3H)-yl)phenyl]1-α-methylethyl]-4-phenyl-5-thiazoleacetic acid]	13%
CC(C)(c1nc(-c2ccccc2)c(CC(=O)N2CCOCC2)s1)c1c(Cl)cc(-n2ncc(=O)[nH]c2=O)cc1Cl [Compound 20]	80%
CC(C)(c1nc(-c2ccccc2)c(CC(=O)N2CCC(O)CC2)s1)c1c(Cl)cc(-n2ncc(=O)[nH]c2=O)cc1Cl [Compound 22]	18%
CC(C)(c1nc(-c2ccccc2)c(C(=O)c2ccccc2)s1)c1c(Cl)cc(-n2ncc(=O)[nH]c2=O)cc1Cl [Compound 25]	79%
COc1ccccc1-c1csc(C(C)(C)c2c(Cl)cc(-n3ncc(=O)[nH]c3=O)cc2Cl)n1 [Compound 26]	84%
Cc1sc(C(C)(C)c2c(Cl)cc(-n3ncc(=O)[nH]c3=O)cc2Cl)nc1-c1ccccc1Cl [Compound 27]	77%
CC(C)(c1nc(-c2cccc(F)c2)cs1)c1c(Cl)cc(-n2ncc(=O)[nH]c2=O)cc1Cl [Compound 28]	83%
COCc1sc(C(C)(C)c2c(Cl)cc(-n3ncc(=O)[nH]c3=O)cc2Cl)nc1-c1ccccc1 [Compound 30]	93%
CC(C)(c1nc(-c2ccccc2Cl)c(-c2ccccc2)s1)c1c(Cl)cc(-n2ncc(=O)[nH]c2=O)cc1Cl [Compound 32]	91%
CC(C)(c1nc(-c2ccccc2F)c(-c2ccccc2)s1)c1c(Cl)cc(-n2ncc(=O)[nH]c2=O)cc1Cl [Compound 34]	93%
CC(C)(c1nc(-c2cccc(Cl)c2)c(-c2ccccc2)s1)c1c(Cl)cc(-n2ncc(=O)[nH]c2=O)cc1Cl [Compound 37]	92%
Cc1ccccc1-c1nc(C(C)(C)c2c(Cl)cc(-n3ncc(=O)[nH]c3=O)cc2Cl)sc1-c1ccccc1 [Compound 38]	93%
CC(=O)N1CCC(c2sc(C(C)(C)c3c(Cl)cc(-n4ncc(=O)[nH]c4=O)cc3Cl)nc2-c2ccccc2)CC1 [Compound 39]	72%
Cc1ccccc1-c1csc(C(C)(C)c2c(Cl)cc(-n3ncc(=O)[nH]c3=O)cc2Cl)n1 [Compound 40]	89%

Same assay, conditions: test dose 1×10^−6 M, phytohemagglutinin 2 μg/ml, 48 hours, read-out: % inh. (percentage inhibition of IL-5 production)

Compound	inhibition at 1 µM
CC(C)(c1nc(-c2ccccc2)c(C(O)c2ccccc2)s1)c1c(Cl)cc(-n2ncc(=O)[nH]c2=O)cc1Cl (racemic) [Compound 29, (±)-2-[3,5-dichloro-4-[1-[5-(hydroxyphenylmethyl)4-phenyl-2-thiazolyl]-1-methyl-ethyl]phenyl]-1,2,4-triazin-3,5(2H,4H)-dione]	71%
CC(C)(c1nc(-c2ccccc2)cs1)c1c(Cl)cc(-n2ncc(=O)[nH]c2=O)cc1Cl [Compound 1, 2-[3,5-dichloro-4-[1-methyl-1-(4-phenyl-2-thiazolyl)ethyl]phenyl]-1,2,4-triazine-3,5(2H,4H)-dione]	90.5%
Cc1sc(C(C)(C)c2c(Cl)cc(-n3ncc(=O)[nH]c3=O)cc2Cl)nc1-c1cccc(Cl)c1 [Compound 3, 2-[3,5-di-chloro-4-[1-[4-(3-chlorophenyl)-5-methyl-2-thiazolyl]-1-methylethyl]phenyl]-1,2,4-triazine-3,5(2H,4H)-dione]	92%
CC(C)(c1nc(-c2ccccc2)c(-c2ccccc2)s1)c1c(Cl)cc(-n2ncc(=O)[nH]c2=O)cc1Cl [Compound 23, 2-[3,5-dichloro-4-[1-(4,5-diphenyl-2-thiazolyl)-1-methylethyl]phenyl]-1,2,4-triazine-3,5(2H,4H)-dione]	91%
Cc1nc(C(C)(C)c2c(Cl)cc(-n3ncc(=O)[nH]c3=O)cc2Cl)sc1-c1ccccc1 [Compound 31, 2-[3,5-dichloro-4-[1-methyl-1-(4-methyl-5-phenyl-2-thiazolyl)ethyl]phenyl]-1,2,4-triazine-3,5(2H,4H)-dione]	87%
CC(C)(c1nc(-c2ccccc2)c(-c2cccnc2)s1)c1c(Cl)cc(-n2ncc(=O)[nH]c2=O)cc1Cl [Compound 33, 2-[3,5-dichloro-4-[1-methyl-1-[4-phenyl-5-(3-pyridinyl)-2-thiazolyl]ethyl]phenyl]-1,2,4-triazine-3,5(2H,4H)-dione]	90%
COCCN1CCN(Cc2sc(C(C)(C)c3c(Cl)cc(-n4ncc(=O)[nH]c4=O)cc3Cl)nc2-c2ccccc2)CC1 [Compound 42, 2-[3,5-dichloro-4-[1-[5-[[4-(2-methoxyethyl)-1-piperazinyl]methyl]-4-phenyl-2-thiazolyl]-1-methylethyl]phenyl]-1,2,4-triazine-3,5(2H,4H)-dione]	26%

— patent publication US6894046B2, “IL-5 inhibiting 6-azauracil derivatives” (Janssen Pharmaceutica N.V., priority 1998, dated 2005)
